The values that follow come from PMC8308678, “Treatment with Micafungin in a Preterm Neonate with an Invasive Candida parapsilosis Infection after a Severe Terlipressin-Induced Skin Necrosis” (Pathogens, 2021).

Molecules are shown by their SMILES. In brackets after ≈: the same amount, converted by molar mass. Read-outs that look alike come from different tables or passages of the source. Starred links: 1 amine or outer side, 2 acyl side, 3 side chain; linkers in the order of their positions; H or OH if unused. Positions of bridges follow the written chain, without caps; N, C: chain ends. Non-standard residues stand in square brackets, D forms with d. Residues, ends and D or L forms follow the SMILES beside them. *: point of attachment. hTyr(3S-OH,4S-OH,3'-OSO3H) = N[C@H](C(=O)O)[C@H](O)[C@@H](O)c1ccc(O)c(OS(=O)(=O)O)c1; pTerphenylCO(4''-OnC5H11) = CCCCCOc1ccc(-c2ccc(-c3ccc(C(=O)*)cc3)cc2)cc1; Orn(4R-OH,5R-OH) = O=C([C@H](C[C@@H](O)[C@@H](O)N[*:3])N[*:1])[*:2]; hTyr(3S-OH,4S-OH) = N[C@H](C(=O)O)[C@H](O)[C@@H](O)c1ccc(O)cc1; Pro(3S-OH,4S-Me) = C[C@H]1CN[C@H](C(=O)O)[C@H]1O; X1 = CCCCCOc1ccc(-c2cc(-c3ccc(C(=O)*)cc3)no2)cc1; Gln(3R-OH) = NC(=O)C[C@@H](O)[C@H](N)C(=O)O; Hyp = O=C(O)[C@@H]1C[C@@H](O)CN1 Some results are limits rather than exact numbers.

For one data set, the system named is Candida parapsilosis. Briefly: microbe, parasite or virus in culture. The data set is classed as cell-based. The settings on record: CLSI guidelines; for MIC: isolated Candida parapsilosis strain (cutaneous swab and urine culture); for Susceptibility of the isolated Candida strain: isolated Candida parapsilosis strain. As to the method:
(§1) Cutaneous swab and urine culture both yielded Candida parapsilosis. The fungal load in urine was 1,000,000 CFU/mL. Susceptibility tests were performed according to the Clinical and Laboratory Standards Institute (CLSI) guidelines. Blood cultures resulted negative, but the child had been on antimicrobial therapy for several days. The isolated Candida strain was susceptible to micafungin (MIC, 0.5 µg/mL), anidulafungin (MIC, 2 µg/mL), fluconazole (MIC, 0.5 µg/mL), itraconazole (MIC, 0.06 µg/mL), voriconazole (MIC, <0.008 µg/mL) and amphotericin B (MIC, 0.5 µg/mL). Among the effective antifungals, we chose micafungin because of the feasibility of plasma concentration monitoring via heel stick capillary samples [8]. After given and obtained informed consent from the parents, both in relation to the high dosage of micafungin to be administered and monitored and to the participation in clinical trials and publications, micafungin was administered intravenously at a dose of 8 mg/kg/day; it was diluted in 0.9% saline solution at a concentration of 2 mg/mL and infused intravenously through epicutaneo-cava catheter in one hour. Plasma micafungin concentrations were measured by high performance liquid chromatography (HPLC) on the third day of the starting of therapy. The lower limit of detection (LLOD) of micafungin was 0.5 mg/L, and the lower limit of quantification (LLOQ) was 1 mg/L. (Table 1).

The subject of data set [1] is invasive Candida parapsilosis infection. Briefly: Clinical treatment of invasive Candida parapsilosis infection (case report). The settings on record: 8 mg/kg/day; extremely preterm neonate with invasive Candida parapsilosis infection. In kind it is in vivo, human preterm neonate. As to the method:
as §1, with “1). […]” for “1).”

Data set [2] can be described thus: Plasma micafungin concentration monitoring by HPLC. The data set is classed as in vivo, human preterm neonate. The conditions noted are these: one patient. As to the method:
as §1
(§2) Given the severe clinical conditions of our patient, the epicutaneo-cava catheter was difficult to replace safely. The systemic therapy allowed complete infection control. […] We monitored plasma concentration of micafungin on 0.3 mL heel puncture blood samples, as previously described, in order to avoid excessive blood draws in a patient of low weight and in such severe clinical conditions.

Data set [3] has as its system confirmed or suspected ICIs. The settings on record: 8 mg/kg/day; 35 neonates with confirmed or suspected ICIs; cited from earlier work. An excerpt: Invasive Candida infections (ICIs) are a major cause of morbidity and mortality among very preterm infants; Candida albicans is the most frequently occurring species, although Candida parapsilosis infections are increasingly reported in preterm neonates. Despite the high minimum inhibitory concentration (MIC) necessary for Candida parapsilosis eradication, echinocandins have a prominent role when an ICI occurs in very preterm infants. These patients often carry a central vascular catheter in which Candida parapsilosis forms a biofilm, due to its adherence properties that favo ...

A short description of data set [4]: Clinical tolerability of micafungin (case report). The data set is classed as in vivo, human preterm neonate. The settings on record: 8 mg/kg/day; for Side effects / tolerability: baby with previous cholestasis. As to the method: as §2

For the molecule `C[C@@H](c1ncncc1F)[C@](O)(Cn1cncn1)c1ccc(F)cc1F` [voriconazole], in the data set on Candida parapsilosis (read-out: MIC), the MIC is under 0.008 µg/mL. Also, the “Susceptibility of the isolated Candida strain” value (shortened to “Susceptibility”) in the data set with Candida parapsilosis is recorded as “susceptible”.
Turning to `C[C@@H]1[C@H](O)[C@@H](C)/C=C/C=C/C=C/C=C/C=C/C=C/C=C/[C@H](O[C@@H]2O[C@H](C)[C@@H](O)[C@H](N)[C@@H]2O)C[C@@H]2O[C@](O)(C[C@@H](O)C[C@@H](O)[C@H](O)CC[C@@H](O)C[C@@H](O)CC(=O)O[C@H]1C)C[C@H](O)[C@H]2C(=O)O` [amphotericin B], in the data set with Candida parapsilosis (read-out: MIC), the MIC came out at 0.5 µg/mL (≈ 0.541 µM). Besides, the “Susceptibility” value in the data set on Candida parapsilosis was “susceptible”.
For `CCCCCOc1ccc(-c2ccc(-c3ccc(C(=O)N[C@H]4C[C@@H](O)[C@@H](O)NC(=O)[C@@H]5[C@@H](O)[C@@H](C)CN5C(=O)[C@H]([C@@H](C)O)NC(=O)[C@H]([C@H](O)[C@@H](O)c5ccc(O)cc5)NC(=O)[C@@H]5C[C@@H](O)CN5C(=O)[C@H]([C@@H](C)O)NC4=O)cc3)cc2)cc1` [anidulafungin] ({pTerphenylCO(4''-OnC5H11)}-[Orn(4R-OH,5R-OH)]T[Hyp][hTyr(3S-OH,4S-OH)]T[Pro(3S-OH,4S-Me)]; lactam 1-C; N-terminus assumed), in the data set on Candida parapsilosis, the MIC was found to be 2 µg/mL (≈ 1.75 µM) and the “Susceptibility” value is “susceptible”.
In the case of `OC(Cn1cncn1)(Cn1cncn1)c1ccc(F)cc1F` [fluconazole], the MIC in the data set on Candida parapsilosis (read-out: MIC) came out at 0.5 µg/mL (≈ 1.63 µM). Also, the “Susceptibility” value with Candida parapsilosis is “susceptible”.
With `CCCCCOc1ccc(-c2cc(-c3ccc(C(=O)N[C@H]4C[C@@H](O)[C@@H](O)NC(=O)[C@@H]5[C@@H](O)[C@@H](C)CN5C(=O)[C@H]([C@H](O)CC(N)=O)NC(=O)[C@H]([C@H](O)[C@@H](O)c5ccc(O)c(OS(=O)(=O)O)c5)NC(=O)[C@@H]5C[C@@H](O)CN5C(=O)[C@H]([C@@H](C)O)NC4=O)cc3)no2)cc1` [micafungin] (X1-[Orn(4R-OH,5R-OH)]T[Hyp][hTyr(3S-OH,4S-OH,3'-OSO3H)][Gln(3R-OH)][Pro(3S-OH,4S-Me)]; lactam 1-C), the Clinical efficacy entry in data set [1] was “effective”. In the data set with Candida parapsilosis, the MIC came out at 0.5 µg/mL (≈ 0.394 µM) and the “Susceptibility” value is recorded as “susceptible”. Besides, the “Plasma Cmax/MIC ratio” value in data set [2] (8 mg/kg/day micafungin dose) was over 10. In addition, in data set [2] (human, in vivo, iv, 8 mg/kg/day i.v. over one hour, third day of therapy, plasma, HPLC, read-out: Plasma micafungin concentration, 1 h after infusion (C max)), the Cmax worked out at 11800 ng/mL. The level at -0.5 h in data set [2] (human, iv, 8 mg/kg/day i.v. over one hour, third day of therapy, plasma, HPLC, heel puncture blood samples, read-out: Plasma micafungin concentration, 30 min before infusion (C min)) worked out at 3730 ng/mL. Moreover, in data set [2] (human, iv, 8 mg/kg/day i.v. over one hour, third day of therapy, plasma, HPLC, read-out: Plasma micafungin concentration, 2 h after infusion), the level at 2 h was 9700 ng/mL. Further, the level at 8 h in data set [2] (human, iv, 8 mg/kg/day i.v. over one hour, third day of therapy, plasma, HPLC, read-out: Plasma micafungin concentration, 8 h after infusion) was 7900 ng/mL. Besides, in data set [3], the Response entry is recorded as “high response”. Besides, the “Side effects / tolerability” value in data set [4] was “did not cause side effects”. The “Side effects / tolerability” value in data set [4] (listed as Micafungin) was “well tolerated”. Besides, the “Aspartate aminotransaminase and alanine aminotransaminase” value in data set [4] (rapidly returned within normal range after discontinuation of therapy) was “transient increase”.
Regarding `CCC(C)n1ncn(-c2ccc(N3CCN(c4ccc(OCC5COC(Cn6cncn6)(c6ccc(Cl)cc6Cl)O5)cc4)CC3)cc2)c1=O` (stereo not shown) [itraconazole], the MIC with Candida parapsilosis (read-out: MIC) came to 0.06 µg/mL (≈ 0.085 µM). Besides, in the data set with Candida parapsilosis, the “Susceptibility” value is on record as “susceptible”.
